# Source: US20230372318A1, “METHODS FOR TREATING A SUBJECT HAVING MULTIPLE SYSTEM ATROPHY” (Theravance Biopharma R&D IP, LLC, priority 2022, published 2023)
# “Also recorded” adds a separate entry of the source.
# Columns and labels:
# [1] = system: subjects with primary autonomic failures (MSA, PD, or PAF) and symptomatic nOH; assay: Phase 3 4-week clinical study in symptomatic nOH (Example 6)
# From the text: The first Phase 3 study was a randomized, double-blind, placebo-controlled, parallel-group, multicenter study designed to evaluate its efficacy, safety, and tolerability in subjects with primary autonomic failures (MSA, PD, or PAF) and symptomatic nOH after 4 weeks of treatment.
# This study was a Phase 3, randomized, double-blind, placebo-controlled, parallel-group, multicenter study to evaluate efficacy, safety, and tolerability of ampreloxetine (administered as ampreloxetine hydrochloride) in subjects with primary autonomic failures (MSA, PD, or PAF) and symptomatic nOH after four weeks of treatment. Subjects participated in the study for approximately 10 weeks.
# Subjects were randomized in a 1:1 ratio to each of either ampreloxetine or placebo group stratified by the subject's disease type (MSA, PD, or PAF).
# Subjects were randomized in a 1:1 ratio to receive either ampreloxetine (test product) or placebo (reference product) once daily through the end of the treatment period.
# Subjects randomized to receive ampreloxetine began taking study medication on Day 2 in the morning at a dose of 10 mg and continued to take this dose once daily through the end of the treatment period.
# The study consisted of three periods: (i) 4-week screening, (ii) 4-week randomized treatment, and (iii) 2-week follow up.
# Following randomization and completion of study assessments, the subject received a single 10-mg dose of ampreloxetine (or matching placebo) once daily (QD) for the remaining double-blind treatment period.
# The efficacy assessments for this study included: OHQ; PGI-C; and incidence of falls. The exploratory assessments included: Orthostatic standing test; PK and pharmacodynamics; Non-Motor Symptom Scale (NMSS); EQ-5D-5L; Hospital Anxiety and Depression Scale (HADS); and Burden Scale for Family Caregivers-short version (BSFC-s).
# The primary study endpoint was the change from baseline in OHSA #1 (dizziness, lightheadedness, feeling faint, or feeling like blacking out) at Week 4.
# The primary efficacy evaluation was the change from baseline of OHSA #1 at Week 4. Baseline was defined as Day 1 pre-dose measurement. A mixed model for repeated measures (MMRM) was fitted to compare treatments. The model included fixed effect class terms of treatment, baseline disease type (MSA, PD, PAF), week, and continuous covariate of baseline OHSA #1 score, a random subject effect, with an unstructured covariance structure using the FAS.
# human recombinant DAT = biological target: T1, human recombinant DAT (Homo sapiens, UniProt Q01959); assay: Radioligand binding, [3H]-WIN35428, CHO-K1-hDAT membranes; details: mean
# T1 construct: expressed in transfected cells; host or cells: CHO-K1
# T1 sequence (Q01959 whole entry): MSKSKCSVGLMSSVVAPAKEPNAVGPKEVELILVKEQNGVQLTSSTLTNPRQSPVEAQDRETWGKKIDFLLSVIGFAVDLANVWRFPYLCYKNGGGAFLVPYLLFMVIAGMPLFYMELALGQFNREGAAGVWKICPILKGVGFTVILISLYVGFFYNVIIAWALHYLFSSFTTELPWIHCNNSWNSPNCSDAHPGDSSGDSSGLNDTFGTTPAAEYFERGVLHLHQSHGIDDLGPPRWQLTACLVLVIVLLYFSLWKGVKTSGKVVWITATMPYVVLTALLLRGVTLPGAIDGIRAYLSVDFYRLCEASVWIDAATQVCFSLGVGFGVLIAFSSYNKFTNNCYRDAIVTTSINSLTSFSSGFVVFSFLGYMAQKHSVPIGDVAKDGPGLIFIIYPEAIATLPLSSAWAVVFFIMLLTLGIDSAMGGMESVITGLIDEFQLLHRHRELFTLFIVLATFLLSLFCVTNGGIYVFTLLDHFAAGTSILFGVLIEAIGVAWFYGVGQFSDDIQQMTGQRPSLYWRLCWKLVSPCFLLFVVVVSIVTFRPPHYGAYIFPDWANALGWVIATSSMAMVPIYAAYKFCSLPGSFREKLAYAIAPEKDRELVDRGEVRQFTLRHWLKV
# From the text: (§1) The in vitro pharmacology of ampreloxetine at human recombinant and rat native monoamine transporters was characterized as described in Smith et al., Inter. J. Neuropsychopharmcol. (2015) 1-11; and Tsuruda et al., J. Pharmacol. Toxicol. Meth. (2010) 61:192-204. See also, e.g., U.S. Pat. Nos. 8,304,432 B2 and 8,304,433 B2. Radioligands were sourced commercially (Perkin Elmer LifeSciences or GE Healthcare Life Sciences).
# (§2) Briefly, membranes prepared from HEK293 (Human Embryonic Kidney 293) or CHO-K1 (Chinese Hamster Ovary-K1) cells stably transfected with human recombinant SERT (HEK293-hSERT), NET (HEK293-hNET), or DAT (CHO-K1-hDAT) were incubated for 1 hr at 22° C. in the absence, or presence, of 4-[2-(2,4,6-trifluorophenoxymethyl)phenyl]piperidine and [^3H]-citalopram (1.0 nM) for SERT, [^3H]-nisoxetine (2.0 nM) for NET, and [^3H]-WIN35428 (3.0 nM) for DAT in 50 mM Tris-HCl, 120 mM NaCl, 5 mM KCl, 0.025% BSA, 100 μM ascorbic acid, pH 7.4. Rat cortical membrane preparations were incubated with [^3H]-citalopram (2.0 nM) for SERT or [^3H]-nisoxetine (4.0 nM) for NET for 1 hr at 22° C. […] Binding and uptake assays were terminated by rapid filtration and radioactivity determined by liquid scintillation spectroscopy. […] Selectivity for NET (rounded to one significant figure) was determined as follows: […]
# rat native NET = biological target: T2, rat native NET (Rattus norvegicus, UniProt Q63380); assay: Radioligand binding, [3H]-nisoxetine, rat cortical membranes; details: mean (95% confidence intervals)
# T2 construct: human recombinant and rat native monoamine transporters; from tissue; host or cells: rat cerebral cortex (membranes; synaptosomes)
# T2 sequence (Q63380 1-617): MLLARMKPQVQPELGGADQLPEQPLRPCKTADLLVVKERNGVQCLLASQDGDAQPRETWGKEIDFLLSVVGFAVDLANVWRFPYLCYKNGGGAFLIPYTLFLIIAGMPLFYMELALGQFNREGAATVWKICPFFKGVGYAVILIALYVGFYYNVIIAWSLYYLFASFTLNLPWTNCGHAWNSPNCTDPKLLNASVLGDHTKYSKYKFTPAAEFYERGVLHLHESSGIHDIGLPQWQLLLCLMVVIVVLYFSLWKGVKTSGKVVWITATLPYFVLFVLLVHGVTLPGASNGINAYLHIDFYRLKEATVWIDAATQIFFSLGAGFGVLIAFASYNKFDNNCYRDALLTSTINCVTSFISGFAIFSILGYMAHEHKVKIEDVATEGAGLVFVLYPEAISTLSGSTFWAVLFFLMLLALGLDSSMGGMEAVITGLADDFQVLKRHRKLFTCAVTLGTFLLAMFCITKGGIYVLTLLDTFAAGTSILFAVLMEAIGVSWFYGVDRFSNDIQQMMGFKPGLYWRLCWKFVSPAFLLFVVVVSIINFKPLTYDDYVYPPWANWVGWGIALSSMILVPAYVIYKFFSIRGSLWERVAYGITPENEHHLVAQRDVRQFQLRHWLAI
# From the text: as §1, §2
# [2] = Rat oral pharmacokinetics, one-compartment PK/PD model; assay type: in vivo
# Method: Adult male Sprague Dawley rats (Charles River) were housed under controlled laboratory conditions (temperature at 21±1° C.) on a 12:12 hour light-dark cycle. Animals were given free access to food and water upon arrival to the facility and animals were acclimatized to their holding room for at least 48 hours. Animals were fasted but allowed free access to water for 15-18 hours prior to dosing.
# Rats (n=6/timepoint/dose level) received a single oral dose of 4-[2-(2,4,6-trifluorophenoxymethyl)phenyl]piperidine (0.3, 1, 5, 10, 30, and 60 mg/kg) and were euthanized by decapitation at specified time points (0.5, 2, 4, 6, and 8 hr for 5 mg/kg dose level; 2 hr for 0.3, 1, 10, 30, and 60 mg/kg dose levels) post-administration. Spinal cords were dissected for ex vivo transporter occupancy and PK assessments from the same animals. The spinal cord was harvested by hydraulic extrusion using phosphate-buffered saline, and the lumbar segment dissected and frozen on dry ice. The remaining spinal cord segments were collected and homogenized in water (25% w/w) for PK analysis. All samples were stored at −80° C. until analysis.
# A kinetic radioligand binding assay was used to determine NET and SERT occupancy in rat spinal cord, as described previously in Bourdet et al., J. Pharm. Exp. Ther. (2012) 341:137-145. PK/PD parameters were estimated by a compartmental modeling approach (WinNonlin Version 5.0.1, Pharsight Corporation). One- and two-compartment PK models with first-order absorption and elimination were evaluated. The one-compartment model was selected. The pharmacodynamics model was an effect compartment Emax model linked directly to the central PK compartment (WinNonlin PK Model 3, PD Model 101). Selection of models was based upon best fit in terms of visual inspection, Akaike Information Criteria, and weighted residual sum of squares using the Gauss-Newton minimization method.
# plasma protein = assay: Plasma protein binding, human; assay type: in vitro ADME
# [3] = MSA subjects, Week 4, 10 mg, N 33
compound,measurement,setting,value
"Fc1cc(F)c(OCc2ccccc2C2CCNCC2)c(F)c1 [Ampreloxetine, 4-[2-(2,4,6-trifluorophenoxymethyl)phenyl]piperidine]",Deaths,"[1]; 10 mg once daily, 4 weeks",no deaths were reported
same,Supine hypertension,"[1]; 10 mg once daily, 4 weeks",no signal for supine hypertension
same,"Serious adverse events, number of subjects","[1]; 10 mg once daily, 4 weeks, none considered related to study drug",four
same,"Anxiety Total Score, Change from Baseline, LS Mean Difference","[1]; MSA subjects, Week 4, 10 mg vs placebo, P-value 0.136",−1.09
same,"Anxiety Total Score, Change from Baseline, LS Mean",[1]; [3],−0.75
same,"Anxiety Total Score, Change from Baseline, Mean",[1]; [3],−0.67
same,"Anxiety Total Score, Change from Baseline, Median",[1]; [3],−1.00
same,Primary endpoint: change from baseline of OHSA #1 score vs placebo,"[1]; Week 4, 10 mg once daily, MSA, PD or PAF",did not meet its primary endpoint; also recorded: did not meet the primary endpoint
same,"Transporter Binding: pKi, DAT",human recombinant DAT,6.7
same,"Transporter Binding: pKi, NET",rat native NET,"8.7 (8.5, 8.9)"
same,"V/F, volume of the central compartment divided by oral bioavailability",[2],54.8 L/kg
same,"k01, first-order absorption rate constant",[2],0.777 h⁻¹
same,"k10, elimination rate constant from the central compartment",[2],0.319 h⁻¹
same,Plasma protein binding,plasma protein,79.1%
